Results taken from US20190309272A1, “Genetically Modified Cell Lines Including a TP53 Modification and Methods of Use” (UNIVERSITY OF SOUTH CAROLINA, priority 2018, published 2019).

Key:
Format in all cases: cell-based, Human
MCF7 WT Parental pool = assay: Drug screening, resazurin, MCF7 wild type parental pool; conditions: for area under the curve (AUC): PR WT Pool, ten day drug treatment (Table 3); for MCF7 WT Parental pool (AUC): ten-day drug treatment, 156.25 nM to 10 μM, resazurin fluorescence
MCF7 TP53 KO 3.4 pool = assay: Drug screening, resazurin, TP53 KO 3.4 pool; conditions: for area under the curve (AUC): KO 34 Pool, ten day drug treatment (Table 3); for TP53 KO 3.4 pool (AUC): ten-day drug treatment, 156.25 nM to 10 μM, resazurin fluorescence
MCF7 TP53 KO 5.6 pool = assay: Drug screening, resazurin, TP53 KO 5.6 pool; conditions: for area under the curve (AUC): KO 56 Pool, ten day drug treatment (Table 3); for TP53 KO 5.6 pool (AUC): ten-day drug treatment, 156.25 nM to 10 μM, resazurin fluorescence
MCF7 PR WT A8 = assay: Drug treatment of single cell clone PR WT A8; conditions: ten day drug treatment; also: unit not given here
MCF7 PR WT B8 = assay: Drug treatment of single cell clone PR WT B8; conditions: ten day drug treatment; also: unit not given here
MCF7 PR WT C7 = assay: Drug treatment of single cell clone PR WT C7; conditions: ten day drug treatment; also: unit not given here
MCF7 PR WT G2 = assay: Drug treatment of single cell clone PR WT G2; conditions: ten day drug treatment; also: unit not given here
MCF7 TP53 KO 34 B5 = assay: Drug treatment of single cell clone KO 34 B5; conditions: ten day drug treatment; also: unit not given here
MCF7 TP53 KO 34 D4 = assay: Drug treatment of single cell clone KO 34 D4; conditions: ten day drug treatment; also: unit not given here
MCF7 TP53 KO 34 E1 = assay: Drug treatment of single cell clone KO 34 E1; conditions: ten day drug treatment
MCF7 TP53 KO 56 A4 = assay: Drug treatment of single cell clone KO 56 A4; conditions: ten day drug treatment
MCF7 TP53 KO 56 A5 = assay: Drug treatment of single cell clone KO 56 A5; conditions: ten day drug treatment
MCF7 TP53 KO 56 A6 = assay: Drug treatment of single cell clone KO 56 A6; conditions: ten day drug treatment
MCF7 TP53 KO 56 A7 = assay: Drug treatment of single cell clone KO 56 A7; conditions: ten day drug treatment; also: unit not given here
MCF7 TP53 KO 56 A8 = assay: Drug treatment of single cell clone KO 56 A8; conditions: ten day drug treatment
MCF7 TP53 KO 56 C5 = assay: Drug treatment of single cell clone KO 56 C5; conditions: ten day drug treatment
MCF7 TP53 KO 56 E1 = assay: Drug treatment of single cell clone KO 56 E1; conditions: ten day drug treatment; also: unit not given here
MCF7 TP53 KO 56 E3 = assay: Drug treatment of single cell clone KO 56 E3; conditions: ten day drug treatment

SMILES	area under the curve (AUC) (MCF7 WT Parental pool)	MCF7 WT Parental pool (AUC) (MCF7 WT Parental pool)	area under the curve (AUC) (MCF7 TP53 KO 3.4 pool)	TP53 KO 3.4 pool (AUC) (MCF7 TP53 KO 3.4 pool)	area under the curve (AUC) (MCF7 TP53 KO 5.6 pool)	TP53 KO 5.6 pool (AUC) (MCF7 TP53 KO 5.6 pool)	area under the curve (AUC) (MCF7 PR WT A8)	area under the curve (AUC) (MCF7 PR WT B8)	area under the curve (AUC) (MCF7 PR WT C7)	area under the curve (AUC) (MCF7 PR WT G2)	area under the curve (AUC) (MCF7 TP53 KO 34 B5)	area under the curve (AUC) (MCF7 TP53 KO 34 D4)	area under the curve (AUC) (MCF7 TP53 KO 34 E1)	area under the curve (AUC) (MCF7 TP53 KO 56 A4)	area under the curve (AUC) (MCF7 TP53 KO 56 A5)	area under the curve (AUC) (MCF7 TP53 KO 56 A6)	area under the curve (AUC) (MCF7 TP53 KO 56 A7)	area under the curve (AUC) (MCF7 TP53 KO 56 A8)	area under the curve (AUC) (MCF7 TP53 KO 56 C5)	area under the curve (AUC) (MCF7 TP53 KO 56 E1)	further results
O=C1[O][Pt]2([NH][C@@H]3CCCC[C@H]3[NH]2)[O]C1=O [Oxaliplatin]	0.9557	2.372	1.25	5.272	1.164	5.118	0.7779	0.7911	0.8311	0.8186	0.973	1.392	1.46	1.29	1.197	1.243	1.23	1.229	1.239	1.208	area under the curve (AUC) (MCF7 TP53 KO 56 E3): 0.9635
CC(=O)c1c(C)c2cnc(Nc3ccc(N4CCNCC4)cn3)nc2n(C2CCCC2)c1=O [Palbociclib]	2.446	3.461	1.88	2.923	1.457	3.234	2.127	1.917	2.543	2.542	1.522	1.826	2.274	1.846	1.647	1.681	1.753	2.031	1.632	1.497	area under the curve (AUC) (MCF7 TP53 KO 56 E3): 1.469
